Results: ChEMBL document CHEMBL5126642, “Triazine-Based Covalent DNA-Encoded Libraries for Discovery of Covalent Inhibitors of Target Proteins” (ACS Med Chem Lett, 2022)
pIC50: −log10 of the molar value.

Experiments:
[1] = target: Tyrosine-protein kinase BTK (Homo sapiens, UniProt Q06187); test: Inhibition of BTK (unknown origin) using TK peptide as substrate incubated for 1 hr in presence of ATP by HTRF assay
[2] = target: T1, Tyrosine-protein kinase JAK3 (Homo sapiens, UniProt P52333); test: Inhibition of JAK3 (unknown origin) using TK peptide as substrate incubated for 1 hr in presence of ATP by HTRF assay
T1 sequence (P52333 whole entry): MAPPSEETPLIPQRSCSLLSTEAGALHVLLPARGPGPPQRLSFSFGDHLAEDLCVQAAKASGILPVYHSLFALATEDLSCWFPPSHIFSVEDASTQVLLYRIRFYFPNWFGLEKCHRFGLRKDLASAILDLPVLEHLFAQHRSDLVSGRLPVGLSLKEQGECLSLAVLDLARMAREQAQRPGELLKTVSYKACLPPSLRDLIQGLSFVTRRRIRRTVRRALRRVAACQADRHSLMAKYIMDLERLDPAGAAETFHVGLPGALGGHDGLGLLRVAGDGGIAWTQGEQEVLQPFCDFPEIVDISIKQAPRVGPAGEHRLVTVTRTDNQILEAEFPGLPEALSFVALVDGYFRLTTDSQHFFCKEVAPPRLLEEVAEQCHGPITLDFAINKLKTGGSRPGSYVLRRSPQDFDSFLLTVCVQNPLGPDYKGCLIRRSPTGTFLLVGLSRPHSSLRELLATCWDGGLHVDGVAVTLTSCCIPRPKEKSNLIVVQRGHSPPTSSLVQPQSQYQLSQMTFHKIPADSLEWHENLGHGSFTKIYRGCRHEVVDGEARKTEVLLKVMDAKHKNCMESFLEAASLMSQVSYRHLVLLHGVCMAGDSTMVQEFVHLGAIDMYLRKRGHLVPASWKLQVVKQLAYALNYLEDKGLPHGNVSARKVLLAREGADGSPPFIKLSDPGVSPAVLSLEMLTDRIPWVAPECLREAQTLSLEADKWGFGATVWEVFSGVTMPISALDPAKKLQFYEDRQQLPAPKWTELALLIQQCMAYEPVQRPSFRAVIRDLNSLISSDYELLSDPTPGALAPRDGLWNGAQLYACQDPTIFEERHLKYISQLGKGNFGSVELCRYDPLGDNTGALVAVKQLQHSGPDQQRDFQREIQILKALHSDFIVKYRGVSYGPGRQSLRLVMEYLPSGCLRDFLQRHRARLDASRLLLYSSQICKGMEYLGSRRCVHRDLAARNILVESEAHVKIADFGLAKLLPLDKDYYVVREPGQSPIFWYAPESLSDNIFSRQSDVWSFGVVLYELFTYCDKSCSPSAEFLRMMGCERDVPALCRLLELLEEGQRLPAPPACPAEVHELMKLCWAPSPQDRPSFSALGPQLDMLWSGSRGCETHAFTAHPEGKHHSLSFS

[3] = target: Peptidyl-prolyl cis-trans isomerase NIMA-interacting 1 (Homo sapiens, UniProt Q13526); test: Inhibition of GST-tagged Pin1 (unknown origin) using Suc-AEPF-pNA peptide as substrate incubated for 3 hrs
Chain of Peptidyl-prolyl cis-trans isomerase NIMA-interacting 1 (Q13526 whole entry): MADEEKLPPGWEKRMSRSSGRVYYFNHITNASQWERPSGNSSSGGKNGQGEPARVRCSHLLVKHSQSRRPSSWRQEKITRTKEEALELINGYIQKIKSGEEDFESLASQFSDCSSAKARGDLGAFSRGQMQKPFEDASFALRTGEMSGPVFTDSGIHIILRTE

Chain of Tyrosine-protein kinase BTK (Q06187 whole entry): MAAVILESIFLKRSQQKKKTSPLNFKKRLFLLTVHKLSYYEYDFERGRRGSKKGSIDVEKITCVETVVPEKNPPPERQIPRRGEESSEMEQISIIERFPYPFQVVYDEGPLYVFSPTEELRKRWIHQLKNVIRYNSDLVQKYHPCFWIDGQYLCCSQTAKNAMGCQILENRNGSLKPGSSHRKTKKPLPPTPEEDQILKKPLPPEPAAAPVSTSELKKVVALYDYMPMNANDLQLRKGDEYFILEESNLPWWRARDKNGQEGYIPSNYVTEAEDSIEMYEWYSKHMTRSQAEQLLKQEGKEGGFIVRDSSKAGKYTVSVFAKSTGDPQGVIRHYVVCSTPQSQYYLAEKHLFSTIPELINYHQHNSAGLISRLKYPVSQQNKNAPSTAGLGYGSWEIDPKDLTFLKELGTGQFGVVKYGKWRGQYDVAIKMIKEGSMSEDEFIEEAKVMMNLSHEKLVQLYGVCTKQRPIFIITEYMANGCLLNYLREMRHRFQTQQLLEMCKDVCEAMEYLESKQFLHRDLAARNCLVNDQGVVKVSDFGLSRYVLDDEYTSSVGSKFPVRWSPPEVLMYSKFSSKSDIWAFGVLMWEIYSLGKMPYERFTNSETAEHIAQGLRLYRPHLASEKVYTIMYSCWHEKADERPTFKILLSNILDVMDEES

| pIC50 [1] | pIC50 [2] | pIC50 [3] | SMILES |
| --- | --- | --- | --- |
| 6.20 | 7.49 |  | CNc1nc(NCC(NC(=O)CCl)c2ccccc2)nc(Nc2cc(C(C)(C)C)[nH]n2)n1 (stereo not given) |
| 5.72 | 8.05 |  | CNc1nc(NCc2cccc(NC(=O)CCl)c2)nc(Nc2cc(C(C)(C)C)[nH]n2)n1 |

The next lines start with the compound.

| SMILES | pIC50 [1] | pIC50 [2] | pIC50 [3] |
| --- | --- | --- | --- |
| C=CC(=O)Nc1cccc(CNc2nc(NC)nc(Nc3cc(C(C)(C)C)[nH]n3)n2)c1 | 7.01 | 8.21 |  |
| C=CC(=O)N1CC2CC1CN2c1nc(NC)nc(Nc2cc[nH]n2)n1 (stereo not given) | 7.79 | 6.16 |  |
| CNc1nc(NC(c2ccccc2)c2cccc(S(C)(=O)=O)c2)nc(N2CCN(C(=O)CCl)CC2)n1 (stereo not given) |  |  | 5.49 |
| CNc1nc(Nc2ccc3cn[nH]c3c2)nc(N2CC3CC2CN3C(=O)CCl)n1 (stereo not given) |  |  | 5.77 |
